# From patent US20060069132A1, “Azolecarboxamide herbicides” (priority 2004, published 2006)
# Key:
# [1] = system: smallflower umbrella sedge; test: Test C flooded paddy test; format: in vivo, Cyperus difformis; conditions: for Plant response rating, Sedge, Umbrella: 500 g ai/ha, visual rating after 12 to 14 days
# [2] = system: corn; test: Test C pre-/postemergence herbicide test; format: in vivo, Zea mays
# Outline: (§1)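 Greenhouse-grown plants were evaluated visually 12 to 14 days after treatment, with 100 meaning complete control and 0 no effect. Application was preemergence, or postemergence at 2 to 18 cm.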
# [3] = system: common ragweed; test: Test C pre-/postemergence herbicide test; format: in vivo, Ambrosia elatior; design: key to Plant response rating, Ragweed: 0 = no effect, 100 = complete control
# Outline: as §1
# [4] = system: morningglory; test: Test A pre-/postemergence herbicide test; format: in vivo, Ipomoea spp.
# Outline: (§2)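 Plants are held in greenhouse about ten days after treatment, then compared with untreated controls and scored 0 (no effect) to 100 (complete control). Preemergence dosing is a directed soil spray on sown sandy loam; postemergence dosing is spray to runoff at 2–10 cm height.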
# [5] = system: barnyardgrass; test: Test A pre-/postemergence herbicide test; format: in vivo, Echinochloa crus-galli
# Outline: as §2
# [6] = system: rice; test: Test C flooded paddy test; format: in vivo, Oryza sativa; conditions: for Plant response rating, Rice: 500 g ai/ha, visual rating after 12 to 14 days
# Outline: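 Postemergence sprays applied to plants 2 to 18 cm tall (1- to 4-leaf stage); paddy species grown to 2-leaf stage under flooding. After 12 to 14 days in greenhouse, visual rating versus untreated controls on 0–100 scale (0 no effect, 100 complete control).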
# [7] = system: ducksalad; test: Test C flooded paddy test; format: in vivo, Heteranthera limosa; conditions: for Plant response rating, Ducksalad: 500 g ai/ha, visual rating after 12 to 14 days
# [8] = system: kochia; test: Test C pre-/postemergence herbicide test; format: in vivo, Kochia scoparia
# Outline: as §1
# [9] = system: common (oilseed) sunflower; test: Test C pre-/postemergence herbicide test; format: in vivo, Helianthus annuus; conditions: preemergence
# Description: Seeds of plant species selected from bermudagrass (Cynodon dactylon (L.) Pers.), Surinam grass (Urochloa decumbens (Staph) R. D. Webster, previously named Brachiaria decumbens Stapf), cocklebur (Xanthium strumarium L.), corn (Zea mays L.), large crabgrass (Digitaria sanguinalis (L.) Scop.), woolly cupgrass (Eriochloa villosa (Thunb.) Kunth), giant foxtail (Setaria faberi Herrm.), goosegrass (Eleusine indica (L.) Gaertn.), johnsongrass (Sorghum halepense (L.) Pers.), kochia (Kochia scoparia (L.) Schrad.), lambsquarters (Chenopodium album L.), morningglory (Ipomoea coccinea L.), eastern black nightshade (Solanum ptycanthum Dunal), yellow nutsedge (Cyperus esculentus L.), pigweed (Amaranthus retroflexus L.), common ragweed (Ambrosia elatior L.), soybean (Glycine max (L.) Merr.), common (oilseed) sunflower (Helianthus annuus L.) and velvetleaf (Abutilon theophrasti Medik.) were planted and treated preemergence with test chemicals formulated in a non-phytotoxic solvent mixture which included a surfactant.
# At the same time, plants selected from these crop and weed species and also winter barley (Hordeum vulgare L.), blackgrass (Alopecurus myosuroides Huds.), canarygrass (Phalaris minor Retz.), chickweed (Stellaria media (L.) Vill.), downy bromegrass (Bromus tectorum L.), green foxtail (Setaria viridis (L.) Beauv.), Italian ryegrass (Lolium multiflorum Lam.), wheat (Triticum aestivum L.), wild oat (Avenafatua L.) and windgrass (Apera spica-venti (L.) Beauv.) were treated with postemergence applications of some of the test chemicals formulated in the same manner. Plants ranged in height from 2 to 18 cm (1- to 4-leaf stage) for postemergence treatments. Plant species in the flooded paddy test consisted of rice (Oryza sativa), smallflower umbrella sedge (Cyperus difformis L.), ducksalad (Heteranthera limosa (Sw.) Willd.) and barnyardgrass (Echinochloa crus-galli (L.) Beauv.) grown to the 2-leaf stage for testing. Treated plants and controls were maintained in a greenhouse for 12 to 14 days, after which time all species were compared to controls and visually evaluated. Plant response ratings, summarized in Table C, are based on a scale of 0 to 100 where 0 is no effect and 100 is complete control. A dash (-) response means no test result.
# [10] = system: bermudagrass; test: Test C pre-/postemergence herbicide test; format: in vivo, Cynodon dactylon; conditions: for Bermudagrass plant response rating: 500 g ai/ha
# Outline: as §1
# [11] = system: large crabgrass; test: Test C pre-/postemergence herbicide test; format: in vivo, Digitaria sanguinalis
# Outline: as §1
# [12] = system: giant foxtail; test: Test C pre-/postemergence herbicide test; format: in vivo, Setaria faberi
# Outline: as §1
# [13] = system: morningglory; test: Test C pre-/postemergence herbicide test; format: in vivo, Ipomoea coccinea; design: key to Plant response rating, Morningglory: 0 = no effect, 100 = complete control
# Outline: as §1
# [14] = 125 g ai/ha, scale 0 to 100 (0 no effect, 100 complete control)
# [15] = 250 g ai/ha, scale of 0 to 100, 0 is no effect, 100 is complete control
# [16] = scale 0 to 100 (0 no effect, 100 complete control)
# [17] = 250 g ai/ha, scale 0-100, preemergence
# [18] = 62 g ai/ha, preemergence, scale 0 to 100
# [19] = 500 g ai/ha, scale 0 to 100 (0 no effect, 100 complete control), visual, 12 to 14 days, preemergence
# [20] = Postemergence, 500 g ai/ha, 0 to 100 scale, 0 no effect, 100 complete control
# [21] = Postemergence, 2000 g ai/ha, 0 to 100 scale, 0 no effect, 100 complete control
# [22] = Preemergence, 2000 g ai/ha, visual rating, 0 to 100 scale (0 no effect, 100 complete control)
# [23] = preemergence, 500 g ai/ha, visual injury, 0 to 100 scale (0 no effect, 100 complete control)
# [24] = 125 g ai/ha, scale 0 (no effect) to 100 (complete control), visual, 12 to 14 days, preemergence
# [25] = 500 g ai/ha, scale 0 to 100 (0 no effect, 100 complete control), visual, 12 to 14 days
# [26] = 62 g ai/ha, preemergence, scale 0 to 100, 0 no effect, 100 complete control
# [27] = Preemergence, scale 0 to 100, 0 no effect, 100 complete control
# [28] = 62 g ai/ha, scale 0 to 100 (0 no effect, 100 complete control)
# [29] = 125 g ai/ha, scale of 0 to 100, 0 is no effect, 100 is complete control
# [30] = Postemergence, 500 g ai/ha, scale 0 to 100
# [31] = postemergence, 125 g ai/ha, scale 0 to 100
# [32] = postemergence, 62 g ai/ha, scale 0 to 100
# [33] = Postemergence, 250 g ai/ha, scale 0 to 100, 0 no effect, 100 complete control
# [34] = Preemergence, 500 g ai/ha, visual rating, 0 to 100 scale (0 no effect, 100 complete control)
smiles,measurement,setting,value
CCn1nc(C(C)(C)C)cc1C(=O)Nc1cncc(C(=O)N(C)C)n1 [Compound 287],"Sedge, Umbrella plant response rating","[1]; 62 g ai/ha, scale 0 to 100",0
same,"Sedge, Umbrella plant response rating",[1]; [14],35
same,"Sedge, Umbrella plant response rating",[1]; [15],70
same,"Plant response rating, Sedge, Umbrella",[1]; [16],75
same,"Plant response rating, Corn",[2]; [17],50
same,"Plant response rating, Ragweed",[3]; [18],100
same,"Plant response rating, Ragweed",[3]; [17],100
same,"Plant response rating, Ragweed",[3]; [19],100
same,Morningglory plant response rating,[4]; [20],20
same,"Plant response rating, Morningglory",[4]; [21],15
same,Morningglory plant response rating,[4]; [22],50
same,Morningglory plant response rating,[4]; [23],10
same,Barnyardgrass plant response rating,[5]; [20],70
same,"Plant response rating, Barnyardgrass",[5]; [21],90
same,Barnyardgrass plant response rating,[5]; [22],100
same,Barnyardgrass plant response rating,[5]; [23],95
same,Rice plant response rating,"[6]; 62 g ai/ha, scale 0 to 100",0
same,Rice plant response rating,[6]; [14],20
same,Rice plant response rating,[6]; [15],25
same,"Plant response rating, Rice",[6]; [16],55
same,Ducksalad plant response rating,"[7]; 62 g ai/ha, scale 0 to 100",0
same,Ducksalad plant response rating,[7]; [14],30
same,Ducksalad plant response rating,[7]; [15],40
same,"Plant response rating, Ducksalad",[7]; [16],45
same,"Plant response rating, Kochia",[8]; [18],85
same,"Plant response rating, Kochia",[8]; [24],100
same,"Plant response rating, Kochia",[8]; [17],100
same,"Plant response rating, Kochia",[8]; [19],100
same,"Plant response rating, Sunflower","[9]; 62 g ai/ha, scale 0 to 100",90
same,"Plant response rating, Sunflower","[9]; 250 g ai/ha, scale 0-100",100
same,"Plant response rating, Sunflower",[9]; [25],100
same,"Plant response rating, Bermudagrass",[10]; [26],85
same,"Plant response rating, Bermudagrass",[10]; [24],95
same,"Plant response rating, Bermudagrass",[10]; [17],95
same,Bermudagrass plant response rating,[10]; [27],95
same,"Plant response rating, Crabgrass, Large",[11]; [18],65
same,"Plant response rating, Crabgrass, Large",[11]; [24],95
same,"Plant response rating, Crabgrass, Large",[11]; [17],95
same,"Plant response rating, Crabgrass, Large",[11]; [19],100
same,"Plant response rating, Foxtail, Giant",[12]; [18],0
same,"Plant response rating, Foxtail, Giant",[12]; [24],70
same,"Plant response rating, Foxtail, Giant",[12]; [17],85
same,"Plant response rating, Foxtail, Giant",[12]; [19],100
CC(=NO)c1cccc(NC(=O)c2cc(C(C)(C)C)nn2CC(F)(F)F)c1 [Compound 112],"Sedge, Umbrella plant response rating",[1]; [28],0
same,"Sedge, Umbrella plant response rating",[1]; [29],0
same,"Sedge, Umbrella plant response rating",[1]; [15],25
same,"Plant response rating, Sedge, Umbrella",[1]; [16],50
same,Corn plant response rating,[2]; [30],30
same,"Plant response rating, Corn",[2]; [31],20
same,"Plant response rating, Corn",[2]; [32],10
same,Ragweed plant response rating,[3]; [30],70
same,"Plant response rating, Ragweed",[3]; [33],70
same,"Plant response rating, Ragweed",[3]; [31],0
same,"Plant response rating, Ragweed",[3]; [32],0
same,Morningglory plant response rating,[4]; [20],20
same,"Plant response rating, Morningglory",[4]; [21],15
same,Morningglory plant response rating,[4]; [34],20
same,Morningglory plant response rating,[4]; [22],45
same,Barnyardgrass plant response rating,[5]; [20],35
same,"Plant response rating, Barnyardgrass",[5]; [21],45
same,Barnyardgrass plant response rating,[5]; [34],25
same,Barnyardgrass plant response rating,[5]; [22],50
same,Rice plant response rating,[6]; [28],0
same,Rice plant response rating,[6]; [29],0
same,Rice plant response rating,[6]; [15],10
same,"Plant response rating, Rice",[6]; [16],30
same,Morningglory plant response rating,[13]; [30],100
same,"Plant response rating, Morningglory",[13]; [33],70
same,"Plant response rating, Morningglory",[13]; [31],20
same,"Plant response rating, Morningglory",[13]; [32],0
same,Ducksalad plant response rating,[7]; [28],0
same,Ducksalad plant response rating,[7]; [29],0
same,Ducksalad plant response rating,[7]; [15],0
same,"Plant response rating, Ducksalad",[7]; [16],100
same,Kochia plant response rating,[8]; [30],80
same,"Plant response rating, Kochia",[8]; [31],20
same,"Plant response rating, Kochia",[8]; [32],0
same,Bermudagrass plant response rating,"[10]; Postemergence, scale 0 to 100",30
same,"Plant response rating, Bermudagrass",[10]; [33],30
same,"Plant response rating, Bermudagrass",[10]; [31],0
same,"Plant response rating, Bermudagrass",[10]; [32],0
same,"Crabgrass, Large plant response rating",[11]; [30],30
same,"Plant response rating, Crabgrass, Large",[11]; [33],30
same,"Plant response rating, Crabgrass, Large",[11]; [31],10
same,"Plant response rating, Crabgrass, Large",[11]; [32],0
same,"Foxtail, Giant plant response rating",[12]; [30],50
same,"Plant response rating, Foxtail, Giant",[12]; [33],50
same,"Plant response rating, Foxtail, Giant",[12]; [31],50
same,"Plant response rating, Foxtail, Giant",[12]; [32],30
CCn1nc(C(C)(C)C)cc1C(=O)Nc1cc(C(=O)N2CCCC2)ccc1F [Compound 242],"Sedge, Umbrella plant response rating",[1]; [28],45
same,"Sedge, Umbrella plant response rating",[1]; [14],75
same,"Sedge, Umbrella plant response rating",[1]; [15],85
same,"Plant response rating, Sedge, Umbrella",[1]; [16],85
same,"Plant response rating, Corn",[2]; [18],0
same,"Plant response rating, Corn",[2]; [24],0
same,"Plant response rating, Corn",[2]; [17],20
same,"Plant response rating, Corn",[2]; [19],25
same,"Plant response rating, Ragweed",[3]; [18],95
same,"Plant response rating, Ragweed",[3]; [17],100
same,"Plant response rating, Ragweed",[3]; [19],100
same,Rice plant response rating,[6]; [28],50
same,Rice plant response rating,[6]; [14],85
same,Rice plant response rating,[6]; [15],90
same,"Plant response rating, Rice",[6]; [16],90
same,"Plant response rating, Morningglory",[13]; [18],0
same,"Plant response rating, Morningglory",[13]; [24],0
same,"Plant response rating, Morningglory",[13]; [17],0
same,"Plant response rating, Morningglory",[13]; [19],15
same,Ducksalad plant response rating,[7]; [28],65
same,Ducksalad plant response rating,[7]; [14],95
same,Ducksalad plant response rating,[7]; [15],95
same,"Plant response rating, Ducksalad",[7]; [16],95
same,"Plant response rating, Sunflower","[9]; 62 g ai/ha, scale 0 to 100",0
same,"Plant response rating, Sunflower","[9]; 250 g ai/ha, scale 0-100",50
same,"Plant response rating, Sunflower",[9]; [25],95
same,"Plant response rating, Bermudagrass",[10]; [26],95
same,"Plant response rating, Bermudagrass",[10]; [24],100
same,"Plant response rating, Bermudagrass",[10]; [17],100
same,Bermudagrass plant response rating,[10]; [27],100
same,"Plant response rating, Crabgrass, Large",[11]; [18],100
same,"Plant response rating, Crabgrass, Large",[11]; [24],100
same,"Plant response rating, Crabgrass, Large",[11]; [17],100
same,"Plant response rating, Crabgrass, Large",[11]; [19],100
same,"Plant response rating, Foxtail, Giant",[12]; [18],85
same,"Plant response rating, Foxtail, Giant",[12]; [24],100
same,"Plant response rating, Foxtail, Giant",[12]; [17],100
same,"Plant response rating, Foxtail, Giant",[12]; [19],100
